The text below walks through data of PubChem BioAssay AID294 (DTP/NCI, 2004).

The test system of this experiment is MX-1 breast xenograft, nude mice, tumor weight change. The experiment in a line: NCI In Vivo Anticancer Drug Screen. Data for tumor model Human Mammary Carcinoma MX-1 Xenograft (subcutaneous) in NU/NU Swiss (nude) mice. The conditions noted are these: endpoint: optimum tumor weight change, schedule: Q04DX003 (ip), higher = larger tumour. On the procedure: The antitumor activity of compounds was measured in mice bearing transplantable tumors. Survival or tumor size were measured and the results are expressed as the measurement made in the treated group (T) divided by the measurement made in the vehicle treated control group (C). The tumor model used in this assay is Human Mammary Carcinoma MX-1 Xenograft (subcutaneous) in NU/NU Swiss (nude) mice
A general note: A xenograft is tissue or cells of one species grown in another, often human tumour cells in immunodeficient mice.

“And” between values parts separate entries of the source, which are not always exact repeats. Identical values can stand only once.

For orientation: T/C means the ratio of treated to control.

With `CC(C)=CCNc1ncnc2c1ncn2C1OC(CO)C(O)C1O` (configuration not stated), the T/C is, setting by setting: (dose: 200.0 mg/kg/injection, vehicle: suspension in saline) 39 % of control; (dose: 400.0 mg/kg/injection, vehicle: suspension in saline) 77 % of control.
`C=C(C)[C@H]1Cc2c(ccc3c2O[C@@H]2COc4cc(OC)c(OC)cc4[C@@H]2C3=O)O1`: the T/C (dose: 3.13 mg/kg/injection, vehicle: saline) is 66 % of control; the T/C (dose: 12.5 mg/kg/injection, vehicle: saline) was 86 % of control; the T/C (dose: 25.0 mg/kg/injection, vehicle: saline) was 76 % of control.
Regarding `C[n+]1c(-c2cccc3ccccc23)c2cc(N)ccc2c2ccccc21`, the T/C is 76 % of control and 82 % of control (dose: 3.0 mg/kg/injection, vehicle: saline); 78 % of control (dose: 6.0 mg/kg/injection, vehicle: saline).
